# Test results reported in patent publication US6846913B1, “Crude extract from Viscum album coloratum, and proteins and lectins isolated therefrom” (Mistle Biotech Co., Ltd., priority 1999, dated 2005).
# System: hemagglutination of KML-IIU and KML-IIL
# Design: species or system Korean mistletoe
# Settings: sugars stepwise diluted from 100 mM
row,Structure (SMILES),Minimal Conc. (mM) necessary to inhibit the hemagglutination [mM]
1,O=C[C@H](O)[C@@H](O)[C@@H](O)[C@H](O)CO [Galactose],6
2,CC(=O)N[C@H]1C(O)O[C@H](CO)[C@H](O)[C@@H]1O (stereo partly shown) [N-Acetylgalactosamine],3
3,OC[C@H]1O[C@@H](O[C@H]2[C@H](O)[C@@H](O)C(O)O[C@@H]2CO)[C@H](O)[C@@H](O)[C@H]1O (stereo partly shown) [Lactose],3
4,CC(=O)N[C@H]1C(O)O[C@H](CO)[C@@H](O)[C@@H]1O (stereo partly shown) [N-Acetylglucosamine],>100
